Measured values reported in patent US8153630B2, “Kinase inhibitors” (Miikana Therapeutics, Inc., priority 2004, dated 2012).
pIC50: −log10 of the molar value.

Assays:
Aurora B kinase = Aurora B kinase (Homo sapiens, UniProt Q96GD4); assay: Aurora B (Aurora 1) inhibition assay; assay type: biochemical; conditions: compound concentration 100 μM; ATP 50 μM, 16 h; read-out: inhibition of the Aurora B enzyme
recombinant Aurora A = target: T1, recombinant Aurora A (Homo sapiens, UniProt O14965); assay: PanVera Z'-Lyte Aurora kinase assay; assay type: biochemical; conditions: Z'-Lyte Ser/Thr 1 peptide 2 μM, ATP 10 μM, 1 h
T1 construct: purchased Upstate, Lake Placid, N.Y
T1 sequence (O14965 1-403): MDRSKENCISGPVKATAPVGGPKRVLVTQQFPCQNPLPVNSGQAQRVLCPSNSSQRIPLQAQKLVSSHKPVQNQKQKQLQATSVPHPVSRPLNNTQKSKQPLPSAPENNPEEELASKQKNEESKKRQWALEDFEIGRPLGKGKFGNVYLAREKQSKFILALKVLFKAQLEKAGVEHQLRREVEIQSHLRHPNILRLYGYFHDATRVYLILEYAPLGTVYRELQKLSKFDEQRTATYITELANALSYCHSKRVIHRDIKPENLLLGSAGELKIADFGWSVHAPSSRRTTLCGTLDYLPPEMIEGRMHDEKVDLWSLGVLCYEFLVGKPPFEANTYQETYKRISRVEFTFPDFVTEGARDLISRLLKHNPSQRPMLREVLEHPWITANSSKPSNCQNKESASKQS
Method: Compounds 7-14 above were tested for their potency against recombinant Aurora A (Upstate, Lake Placid, N.Y.) using the PanVera Z'-Lyte kinase assay kit—Ser/Thr 1 peptide (Invitrogen, Carlsbad, Calif.). Assays were carried out in kinase assay buffer (50 mM HEPES, pH 7.5, 10 mM MgCl2, 5 mM EGTA, 0.05% Brij-35, 2 mM DTT). Test compounds were initially dissolved in DMSO at 100× the highest tested concentration, then serially diluted to 4× test concentrations in kinase assay buffer. Next, Aurora A (final concentration 200-500 ng/mL), Z′-Lyte Ser/Thr 1 peptide (final concentration 2 μM) and ATP (final concentration 10 μM) were added according to the manufacturer's instructions. Assays were carried out in half-area 96-well white polystyrene assay plates (Corning, Corning, N.Y.) in a final volume of 20 μL. The reaction was allowed to proceed for 1 h at room temperature in the dark, at which point the development reagent and stop reagent were added according to the manufacturer's instructions. Coumarin (Ex. 400 nm, Em. 465 nm) and fluorescein (Ex. 400 nm, Em. 565 nm) fluorescence values were measured on a SpectraFluor Plus plate reader (Tecan, Durham, N.C.). The emission ratio (coumarin/fluorescein) was determined and used to calculate the percent phosphorylation for each well. Wells containing substrate but no kinase and wells containing a phosphopeptide control were used to set 0% and 100% phosphorylation values, respectively. Typically 20-40% of the substrate was phosphorylated in wells without inhibitor. Dose-response curves of relative Aurora A activity vs. inhibitor concentration were plotted with Grafit (Erithacus Software, Horley, Surrey, UK) and used to calculate IC50 values.

HCT 116 Cells = assay: Aurora kinase whole cell cytotoxicity assay: Sulforhodamine B; assay type: cell-based; conditions: Homo sapiens, HCT116, SRB staining, 96 hours incubation
Method: Human tumour-derived cell lines, HCT116 or MCF7 (ATCC) were plated in a 96 well plate in DMEM containing 10% fetal bovine serum and 2 mM L-glutamine at a density of 500 HCT116 cells or 1,000 MCF7 cells per well and incubated at 37° C., 5% CO2, for 24 hours prior to the addition of experimental compounds. Compounds were added using the dilution series indicated to duplicate plates and the cells were incubated in media plus compound for 96 hours. An additional plate was fixed in 10% TCA at the time of the addition of compound to provide a measurement of the cell population at time zero, the time of drug addition. Following the 96 hour incubation, cells were fixed in situ by gently aspirating off the culture media and then adding 50 ul of ice cold 10% TCA per well and incubation at 4° C. for 60 minutes. The plates were washed with tap water five times and allowed to air dry for 5 minute. 50 ul of a 0.4% (w/v) Sulforhodamine B solution in 1% (v/v) acetic acid was added per well and the cells were incubated for 30 minutes at room temperature. Following staining, plates were washed four times with 1% acetic acid to remove any unbound dye and then allowed to air dry for 5 minutes. The stain was solubilized with 100 ul of 10 mM Tris pH 10.5 per well and placed on an orbital rotator for 5 minutes. The absorbance was read at 570 nm. Percentage growth was calculated using the absorbance readings from the time zero plate (Tz) and the dilution series plate […] which included a column of cells grown in media without compound as a control (C) using the formulas: [(Ti−Tz)/(C−Tz)]×100 for concentrations for which Ti>/=Tz [(Ti−Tz)/Tz]×100 for concentrations for which Ti<Tz.
Three dose response parameters were calculated for each experimental agent. Growth inhibition of 50% (GI50) was calculated from [(Ti−Tz)/(C−Tz)]×100=50, which was the drug concentration resulting in a 50% reduction in the net protein increase (as measured by SRB staining) in control cells during the drug incubation. The drug concentration resulting in total growth inhibition (TGI) was calculated from Ti=Tz. The LC50 (concentration of drug resulting in a 50% reduction in the measured protein at the end of the drug treatment as compared to that at the beginning) indicating a net loss of cells following treatment ws calculated from [(Ti−Tz)/Tz]×100=−50. Values are calculated for each of these three parameters if the level of activity was reached; however, if the effect was not reached or was exceeded, the value for that parameter is expressed as greater or less than the maximum or minimum concentration tested.

Aurora B kinase, sequence (Q96GD4 whole entry): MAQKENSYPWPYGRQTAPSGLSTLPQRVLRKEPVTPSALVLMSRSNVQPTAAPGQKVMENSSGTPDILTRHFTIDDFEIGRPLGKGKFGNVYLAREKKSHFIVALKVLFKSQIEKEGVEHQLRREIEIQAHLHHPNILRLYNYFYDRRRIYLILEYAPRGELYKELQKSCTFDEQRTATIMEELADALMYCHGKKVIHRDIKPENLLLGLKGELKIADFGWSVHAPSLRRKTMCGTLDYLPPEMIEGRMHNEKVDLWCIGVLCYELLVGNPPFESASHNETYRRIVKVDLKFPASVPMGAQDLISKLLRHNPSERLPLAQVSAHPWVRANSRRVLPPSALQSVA

| inhibition at 100 µM (Aurora B kinase) [%] | pIC50 (recombinant Aurora A) | SMILES | GI50 (HCT 116 Cells) [nM] |
| --- | --- | --- | --- |
| 100 | > 7.00 | CCOC(=O)c1nc(Sc2ccc(NC(=O)C3CC3)cc2)nc(Nc2cc(C)[nH]n2)c1N [Compound 11, Ethyl 2-(4-cyclopropanecarboxamidophenylsulfanyl)-5-amino-6-(5-methylpyrazol-3-ylamino)-4-pyrimidinecarboxylate] | 100 to 1000 |
| 100 | > 7.00 | Cc1cc(Nc2nc(Sc3ccc(NC(=O)C4CC4)cc3)nc(C(=O)NCCN3CCOCC3)c2N)n[nH]1 [Compound 52, N-(2-Morpholin-4-ylethyl) 2-(4-cyclopropanecarboxamidophenylsulfanyl)-5-amino-6-(5-methylpyrazol-3-ylamino)-4-pyrimidinecarboxamide] | 100 to 1000 |
